Laboratory results as given in patent publication US20150079156A1, “LIPOSOMAL DELIVERY SYSTEM” (THE QUEEN'S UNIVERSITY OF BELFAST, priority 2012, published 2015).

Assays:
[1] = In vitro release of BSA from liposomes, dialysis method; format: physicochemical; settings: free BSA, 4 h, 37° C., PBS pH 7.4
Method: in vitro release experiments of BSA from liposomes were performed at 37°±0.5° C. using the dialysis method under constant shaking (60 rpm). A 10 ml of phosphat buffered saline (PBS) pH 7.4 was used to test for the drug release for 48 h. Dialysis bags (Spectra/Por Biotech Cellulose Ester Dialysis Membrane MWCO: 300,000 Spectrum Ls Rancho Dominguez, Calif., USA) containing 500 μl liposomes were introduced into the system. All of the release media was withdrawn and replaced with the same volume of fresh medium at designated time points to maintain sink conditions. The sampled medium (1.0 ml out of 10 ml) was mixed with Bradford's reagent and the absorbance was measured as described in the method for determination of encapsulation efficiency. The concentration of the BSA released from the liposomes was calculated from the obtained linear calibration curve (r≧0.99) as previously described in the method for determination of encapsulation efficiency.

[2] = tested on: human lung epithelial cell line L-132; test: Cell uptake of CF-loaded liposomal formulations (fluorometry, flow cytometry, CLSM); format: cell-based; settings: L-132 cells, 0.5-2 h at 37° C., 1:100 dilution
Method: Cells from the human lung epithelial cell line L-132 were cultured in MEM medium containing Earle's salts and L-glutamine and supplemented with 10% fetal calf serum (FCS), under standard conditions at 37° C. with 5% CO2 and 95% air. To validate the fluorimetric analysis, a standard curve was created during each assay. To perform the fluorometric assay cells were seeded at 25×10^4 cells/well onto 24-well plates (total volume was 1 ml/well). Twenty four hours later, the culture medium was removed. The formulations were added to the cells in 1:100 dilution in MEM medium (10 μl of liposomes suspension+990 μl medium) and incubated for 0.5-2 h at 37° C. Following incubation cells were washed two times with cold PBS to end the uptake experiment. Then the washed cells were lysed with 0.2% Triton X-100 in 0.2 N NaOH (1.0 ml/well) for 0.5-1 hour at room temperature. Aliquots from each well were transferred into 96-well plates. The cell fluorescence intensity was determined using a microplate fluorometer at an excitation wavelength of 485 nm and emission wavelength of 520 nm and Gain level set to 800 in the software (FIG. 4). […] The cells were kept on ice and analysized by flow cytometry using a FACscan flow cytometer for cell-associated CF fluorescence. The mean fluorescence intensity of cells was determined for each sample (FIG. 5). […]

[3] = Nasal tissue penetration, Franz type permeation cell, CLSM; format: in vitro ADME, bovine; settings: CF loaded, 1 hour incubation, 37° C.
Method: To investigate the ability of the TPGS:DDA:SPC liposomes of Example 1 to cross nasal mucosa and penetrate into bovine nasal tissue fresh bovine nasal tissues were collected from freshly slaughtered animals. The mucosal tissue was removed and preserved in Krebs Bicarbonate Ringer (KBR) buffer pH 7.4. Liposome penetration studies were performed immediately to maintain the viability of the cells tissue being used. A Franz type permeation cell was used in this study; the recipient compartment filled with KBR buffer and stirred constantly. The temperature of the Franz cell was maintained at 37° C. with jacketed water flow. A 1.5 cm^2 tissue section was inserted between the recipient and donor compartments and 0.5 ml of reconstituted liposomal dispersion or free carboxyfluorescein (CF) solutions containing an equivalent amount of CF were loaded into the donor compartment, and left for 1 hour incubation. The tissues were then washed with KBR buffer and frozen in optimal cutting temperature compound at −80° C. for cryosection. Samples of 10 μm thickness were obtained using a cryostat (MICROM HM 550). Propidium iodide (PI) solution was used to stain the cell nuclei and cryosectioned tissues were mounted in glycerol containing 1,4-phenylenediamine (0.1 g/l). Penetration was observed using confocal laser scanning microscopy (CLSM). […]

Row | penetration into bovine nasal tissue (CLSM) [3] | Substance | cumulative release of BSA [1] [%] | amount of CF incorporated into cells [2]
1 | – | bovine serum albumin [free BSA] | 46.6±2.6 | –
2 | completely washed out | carboxyfluorescein [free CF] | – | free CF<CF-loaded SPC liposomes <CF-loaded TPGS:DDA:SPC liposomes
